Measurements: BigSolDB 2.1

Oc1ccccc1C=Nc1c(F)cccc1F
solubility (mole fraction)
Settings	273.15 K	278.15 K	283.15 K	288.15 K	293.15 K	298.15 K	303.15 K
in 1,2-dichloroethane	0.105	0.122	0.142	0.164	0.193	0.234	0.277
in THF	0.161	0.181	0.2	0.23	0.258	0.293	0.338
in acetonitrile	0.0134	0.0191	0.0272	0.0389	0.0547	0.0768	0.106
in chloroform	0.138	0.154	0.177	0.203	0.232	0.27	0.313
in dichloromethane	0.122	0.139	0.161	0.185	0.218	0.252	0.295
in ethanol	0.00496	0.00633	0.00819	0.0103	0.0128	0.0157	0.0192
in ethyl acetate	0.0896	0.104	0.124	0.146	0.173	0.204	0.248
in isopropanol	0.008	0.0095	0.0114	0.0136	0.0164	0.0195	0.0231
in methanol	0.00299	0.00392	0.00512	0.00667	0.00873	0.0111	0.0141
in n-propanol	0.00636	0.00779	0.00958	0.0118	0.0146	0.0177	0.0212
in toluene	0.0871	0.105	0.126	0.149	0.176	0.213	0.251
